Measured values reported in paper PMC12586182 (Frontiers in Oncology, 2025).
pIC50: −log10 of the molar value.

How the values were obtained:
ALK = target: T1, ALK (Homo sapiens, UniProt Q9UM73); assay: Kinase panel profiling at 1 µmol/L (mobility shift assay, Carna); assay type: biochemical; settings: 1 µmol/L of BTK inhibitor
T1 construct: purchased Carna Biosciences

AXL = target: T2, AXL (Homo sapiens, UniProt P30530); assay: as above; assay type: biochemical; settings: 1 µmol/L of BTK inhibitor
T2 construct: purchased Carna Biosciences
T2 sequence (P30530 26-894): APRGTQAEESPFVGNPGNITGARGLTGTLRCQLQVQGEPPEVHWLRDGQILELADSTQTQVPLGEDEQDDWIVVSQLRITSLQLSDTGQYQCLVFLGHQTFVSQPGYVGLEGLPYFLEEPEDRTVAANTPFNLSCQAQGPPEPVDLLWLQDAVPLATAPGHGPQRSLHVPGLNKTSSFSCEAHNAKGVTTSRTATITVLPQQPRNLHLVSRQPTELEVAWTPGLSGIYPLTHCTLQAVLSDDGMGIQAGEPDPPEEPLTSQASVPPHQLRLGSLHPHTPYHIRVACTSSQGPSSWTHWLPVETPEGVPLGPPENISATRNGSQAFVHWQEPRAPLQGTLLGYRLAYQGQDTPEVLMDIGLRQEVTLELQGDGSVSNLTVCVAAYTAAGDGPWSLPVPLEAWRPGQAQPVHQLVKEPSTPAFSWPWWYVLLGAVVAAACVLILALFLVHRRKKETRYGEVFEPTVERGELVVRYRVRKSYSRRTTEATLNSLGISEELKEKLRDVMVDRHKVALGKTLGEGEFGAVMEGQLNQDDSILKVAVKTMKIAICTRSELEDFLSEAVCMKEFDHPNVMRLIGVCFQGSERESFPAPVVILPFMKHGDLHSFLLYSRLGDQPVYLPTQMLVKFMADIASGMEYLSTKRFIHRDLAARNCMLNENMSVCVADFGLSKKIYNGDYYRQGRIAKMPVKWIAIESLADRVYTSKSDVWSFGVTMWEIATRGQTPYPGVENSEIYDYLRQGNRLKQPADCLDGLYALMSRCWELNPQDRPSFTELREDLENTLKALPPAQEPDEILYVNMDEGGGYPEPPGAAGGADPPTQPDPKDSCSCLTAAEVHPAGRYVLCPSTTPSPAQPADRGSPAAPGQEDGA

EPHB1 = target: T3, EPHB1 (Homo sapiens, UniProt P54762); assay: as above; assay type: biochemical; settings: 1 µmol/L of BTK inhibitor
T3 construct: purchased Carna Biosciences
T3 sequence (P54762 18-984): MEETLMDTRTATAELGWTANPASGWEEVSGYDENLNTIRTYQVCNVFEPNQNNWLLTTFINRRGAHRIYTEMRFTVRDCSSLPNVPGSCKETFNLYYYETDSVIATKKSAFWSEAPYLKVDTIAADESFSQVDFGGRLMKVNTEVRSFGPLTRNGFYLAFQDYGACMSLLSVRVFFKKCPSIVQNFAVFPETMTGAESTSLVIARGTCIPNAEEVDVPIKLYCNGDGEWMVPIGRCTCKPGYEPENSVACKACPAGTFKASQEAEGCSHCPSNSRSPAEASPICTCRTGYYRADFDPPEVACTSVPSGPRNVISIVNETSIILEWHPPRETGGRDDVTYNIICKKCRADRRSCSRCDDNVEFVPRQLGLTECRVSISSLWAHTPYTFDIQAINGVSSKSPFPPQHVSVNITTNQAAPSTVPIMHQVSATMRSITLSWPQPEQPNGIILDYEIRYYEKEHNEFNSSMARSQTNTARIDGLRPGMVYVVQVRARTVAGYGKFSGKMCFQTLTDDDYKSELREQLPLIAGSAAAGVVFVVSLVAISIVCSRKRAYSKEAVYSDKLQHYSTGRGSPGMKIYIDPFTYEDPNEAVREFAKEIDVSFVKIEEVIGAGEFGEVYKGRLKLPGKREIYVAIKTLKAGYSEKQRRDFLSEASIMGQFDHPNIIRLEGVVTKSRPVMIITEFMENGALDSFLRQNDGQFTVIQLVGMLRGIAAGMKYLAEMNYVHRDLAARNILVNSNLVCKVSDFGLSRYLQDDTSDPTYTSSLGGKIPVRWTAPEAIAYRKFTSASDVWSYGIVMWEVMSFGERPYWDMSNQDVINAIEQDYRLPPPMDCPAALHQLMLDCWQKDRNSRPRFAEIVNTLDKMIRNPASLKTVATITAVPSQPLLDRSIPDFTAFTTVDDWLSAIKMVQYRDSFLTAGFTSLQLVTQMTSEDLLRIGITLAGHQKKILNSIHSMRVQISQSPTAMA

FLT4 = target: T4, FLT4 (Homo sapiens, UniProt P35916); assay: as above; assay type: biochemical; settings: 1 µmol/L of BTK inhibitor
T4 construct: purchased Carna Biosciences
T4 sequence (P35916 25-1363): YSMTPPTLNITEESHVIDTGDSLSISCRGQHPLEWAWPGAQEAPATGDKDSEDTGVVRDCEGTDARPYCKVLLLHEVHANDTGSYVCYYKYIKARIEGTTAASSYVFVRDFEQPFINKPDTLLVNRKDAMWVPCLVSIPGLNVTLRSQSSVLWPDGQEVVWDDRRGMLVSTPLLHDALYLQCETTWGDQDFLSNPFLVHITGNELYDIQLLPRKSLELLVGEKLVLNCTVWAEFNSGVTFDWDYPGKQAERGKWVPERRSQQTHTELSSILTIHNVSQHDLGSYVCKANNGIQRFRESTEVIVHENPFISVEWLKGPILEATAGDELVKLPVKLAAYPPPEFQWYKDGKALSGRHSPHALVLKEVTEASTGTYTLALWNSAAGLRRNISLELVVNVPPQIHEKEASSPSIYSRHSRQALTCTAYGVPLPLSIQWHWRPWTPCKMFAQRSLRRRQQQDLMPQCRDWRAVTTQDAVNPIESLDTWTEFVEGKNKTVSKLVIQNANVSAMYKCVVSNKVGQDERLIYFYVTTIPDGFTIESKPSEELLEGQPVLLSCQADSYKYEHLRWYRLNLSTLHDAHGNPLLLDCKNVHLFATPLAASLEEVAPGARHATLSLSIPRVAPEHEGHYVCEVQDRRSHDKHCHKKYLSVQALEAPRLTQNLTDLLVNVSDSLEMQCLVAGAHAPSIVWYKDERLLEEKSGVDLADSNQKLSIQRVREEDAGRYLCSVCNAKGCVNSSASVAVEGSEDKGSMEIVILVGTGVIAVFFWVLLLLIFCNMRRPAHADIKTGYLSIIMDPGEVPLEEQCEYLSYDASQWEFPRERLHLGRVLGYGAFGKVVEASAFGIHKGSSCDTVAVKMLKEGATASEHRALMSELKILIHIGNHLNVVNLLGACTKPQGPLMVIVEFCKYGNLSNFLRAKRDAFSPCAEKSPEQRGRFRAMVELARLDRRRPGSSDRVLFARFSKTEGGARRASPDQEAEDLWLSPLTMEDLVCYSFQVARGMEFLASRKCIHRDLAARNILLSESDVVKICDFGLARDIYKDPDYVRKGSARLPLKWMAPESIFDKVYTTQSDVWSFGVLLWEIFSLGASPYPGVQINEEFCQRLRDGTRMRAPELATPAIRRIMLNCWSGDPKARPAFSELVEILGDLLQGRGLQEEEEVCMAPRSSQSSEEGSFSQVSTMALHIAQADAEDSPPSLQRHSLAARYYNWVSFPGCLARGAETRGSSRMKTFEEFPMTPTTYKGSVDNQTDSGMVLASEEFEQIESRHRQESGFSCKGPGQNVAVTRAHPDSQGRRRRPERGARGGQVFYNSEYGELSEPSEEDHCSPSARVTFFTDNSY

CLK2 = target: T5, CLK2 (Homo sapiens, UniProt P49760); assay: as above; assay type: biochemical; settings: 1 µmol/L of BTK inhibitor
T5 construct: purchased Carna Biosciences
T5 sequence (P49760 whole entry): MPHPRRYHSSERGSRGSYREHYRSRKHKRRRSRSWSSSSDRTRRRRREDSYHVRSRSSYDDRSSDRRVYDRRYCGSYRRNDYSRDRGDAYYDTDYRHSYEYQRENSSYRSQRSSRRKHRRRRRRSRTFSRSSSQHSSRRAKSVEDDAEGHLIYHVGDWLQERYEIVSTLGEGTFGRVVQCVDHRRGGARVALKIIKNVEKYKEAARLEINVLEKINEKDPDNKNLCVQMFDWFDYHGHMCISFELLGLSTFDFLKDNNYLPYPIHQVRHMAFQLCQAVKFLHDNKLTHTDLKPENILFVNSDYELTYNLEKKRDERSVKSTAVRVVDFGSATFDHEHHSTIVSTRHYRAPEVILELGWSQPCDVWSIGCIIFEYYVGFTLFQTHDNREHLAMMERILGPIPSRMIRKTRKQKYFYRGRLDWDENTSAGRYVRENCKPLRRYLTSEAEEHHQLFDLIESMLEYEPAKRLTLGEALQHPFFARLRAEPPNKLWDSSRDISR

Erk5 = target: T6, Erk5 (Homo sapiens, UniProt Q13164); assay: as above; assay type: biochemical; settings: 1 µmol/L of BTK inhibitor
T6 construct: purchased Carna Biosciences

MNK1 = target: T7, MNK1 (Homo sapiens, UniProt Q9BUB5); assay: as above; assay type: biochemical; settings: 1 µmol/L of BTK inhibitor
T7 construct: purchased Carna Biosciences
T7 sequence (Q9BUB5 whole entry): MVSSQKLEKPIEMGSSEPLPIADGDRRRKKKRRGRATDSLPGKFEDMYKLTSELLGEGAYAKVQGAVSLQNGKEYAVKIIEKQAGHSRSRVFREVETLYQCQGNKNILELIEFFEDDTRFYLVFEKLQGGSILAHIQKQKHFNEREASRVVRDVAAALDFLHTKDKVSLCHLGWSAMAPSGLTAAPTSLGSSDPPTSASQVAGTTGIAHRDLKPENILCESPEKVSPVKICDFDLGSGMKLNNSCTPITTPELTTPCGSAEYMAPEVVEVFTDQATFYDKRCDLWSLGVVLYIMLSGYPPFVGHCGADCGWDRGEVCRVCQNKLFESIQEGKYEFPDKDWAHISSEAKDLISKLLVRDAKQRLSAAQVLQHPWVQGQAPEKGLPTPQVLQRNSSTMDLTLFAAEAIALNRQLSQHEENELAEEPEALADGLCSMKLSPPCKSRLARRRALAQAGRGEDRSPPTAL

NEK4 = target: T8, NEK4 (Homo sapiens, UniProt P51957); assay: as above; assay type: biochemical; settings: 1 µmol/L of BTK inhibitor
T8 construct: purchased Carna Biosciences
T8 sequence (P51957 whole entry): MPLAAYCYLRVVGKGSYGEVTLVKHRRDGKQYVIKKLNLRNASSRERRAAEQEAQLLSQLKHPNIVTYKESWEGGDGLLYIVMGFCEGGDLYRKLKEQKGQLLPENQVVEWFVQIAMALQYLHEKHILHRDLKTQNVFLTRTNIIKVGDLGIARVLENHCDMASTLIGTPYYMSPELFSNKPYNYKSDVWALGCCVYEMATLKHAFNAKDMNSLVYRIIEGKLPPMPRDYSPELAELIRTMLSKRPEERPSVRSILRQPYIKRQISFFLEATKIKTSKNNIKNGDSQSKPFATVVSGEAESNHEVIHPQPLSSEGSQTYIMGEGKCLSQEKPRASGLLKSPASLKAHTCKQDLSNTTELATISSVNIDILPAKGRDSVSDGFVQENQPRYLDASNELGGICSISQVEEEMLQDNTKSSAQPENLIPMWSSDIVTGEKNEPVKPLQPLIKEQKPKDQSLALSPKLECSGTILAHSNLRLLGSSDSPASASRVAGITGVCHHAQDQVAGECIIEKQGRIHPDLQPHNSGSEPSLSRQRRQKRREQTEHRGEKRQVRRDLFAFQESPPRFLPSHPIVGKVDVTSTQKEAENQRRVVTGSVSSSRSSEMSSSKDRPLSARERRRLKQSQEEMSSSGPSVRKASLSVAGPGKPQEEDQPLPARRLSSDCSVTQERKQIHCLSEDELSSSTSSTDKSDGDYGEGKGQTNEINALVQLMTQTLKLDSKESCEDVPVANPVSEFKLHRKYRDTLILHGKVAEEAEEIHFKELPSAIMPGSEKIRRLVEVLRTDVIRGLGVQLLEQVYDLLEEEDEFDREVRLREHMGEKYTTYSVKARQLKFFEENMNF

PAK4 = target: T9, PAK4 (Homo sapiens, UniProt O96013); assay: as above; assay type: biochemical; settings: 1 µmol/L of BTK inhibitor
T9 construct: purchased Carna Biosciences

PASK = target: T10, PASK (Homo sapiens, UniProt Q96RG2); assay: as above; assay type: biochemical; settings: 1 µmol/L of BTK inhibitor
T10 construct: purchased Carna Biosciences
T10 sequence (Q96RG2 whole entry): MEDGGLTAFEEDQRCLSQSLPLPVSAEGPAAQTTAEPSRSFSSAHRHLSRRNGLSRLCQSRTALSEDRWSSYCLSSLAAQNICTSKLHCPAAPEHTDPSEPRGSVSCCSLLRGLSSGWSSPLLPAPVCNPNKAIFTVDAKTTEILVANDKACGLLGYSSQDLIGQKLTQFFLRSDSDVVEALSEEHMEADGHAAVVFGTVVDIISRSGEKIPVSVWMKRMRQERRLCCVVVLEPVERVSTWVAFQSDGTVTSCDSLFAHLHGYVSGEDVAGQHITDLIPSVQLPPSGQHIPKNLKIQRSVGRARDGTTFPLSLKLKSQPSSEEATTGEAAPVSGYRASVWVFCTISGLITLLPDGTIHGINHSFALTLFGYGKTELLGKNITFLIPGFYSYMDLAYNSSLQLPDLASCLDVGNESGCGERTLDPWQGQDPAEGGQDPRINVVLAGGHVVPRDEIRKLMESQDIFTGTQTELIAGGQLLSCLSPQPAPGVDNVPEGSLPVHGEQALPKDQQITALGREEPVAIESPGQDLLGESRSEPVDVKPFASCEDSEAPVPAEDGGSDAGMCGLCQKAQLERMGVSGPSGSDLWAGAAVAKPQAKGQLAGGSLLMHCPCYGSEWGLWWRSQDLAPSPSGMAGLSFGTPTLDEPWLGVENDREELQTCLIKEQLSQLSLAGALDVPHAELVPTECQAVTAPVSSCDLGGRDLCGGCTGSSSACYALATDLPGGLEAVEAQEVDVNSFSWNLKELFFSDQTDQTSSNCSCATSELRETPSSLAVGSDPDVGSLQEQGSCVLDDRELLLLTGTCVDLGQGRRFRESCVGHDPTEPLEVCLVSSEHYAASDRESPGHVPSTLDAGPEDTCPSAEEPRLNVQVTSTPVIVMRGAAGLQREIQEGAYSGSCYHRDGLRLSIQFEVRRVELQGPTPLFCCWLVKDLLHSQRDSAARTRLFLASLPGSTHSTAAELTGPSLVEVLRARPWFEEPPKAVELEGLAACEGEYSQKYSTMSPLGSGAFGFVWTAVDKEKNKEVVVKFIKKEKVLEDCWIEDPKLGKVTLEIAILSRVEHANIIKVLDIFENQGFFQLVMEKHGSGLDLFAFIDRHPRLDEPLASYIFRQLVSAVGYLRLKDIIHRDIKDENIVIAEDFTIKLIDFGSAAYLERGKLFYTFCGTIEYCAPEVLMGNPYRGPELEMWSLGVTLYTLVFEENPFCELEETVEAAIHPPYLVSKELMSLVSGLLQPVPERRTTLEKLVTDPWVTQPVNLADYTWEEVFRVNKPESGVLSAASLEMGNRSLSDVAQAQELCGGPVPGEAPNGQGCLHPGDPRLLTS

SGK2 = target: T11, SGK2 (Homo sapiens, UniProt Q9HBY8); assay: as above; assay type: biochemical; settings: 1 µmol/L of BTK inhibitor
T11 construct: purchased Carna Biosciences
T11 sequence (Q9HBY8 1-367): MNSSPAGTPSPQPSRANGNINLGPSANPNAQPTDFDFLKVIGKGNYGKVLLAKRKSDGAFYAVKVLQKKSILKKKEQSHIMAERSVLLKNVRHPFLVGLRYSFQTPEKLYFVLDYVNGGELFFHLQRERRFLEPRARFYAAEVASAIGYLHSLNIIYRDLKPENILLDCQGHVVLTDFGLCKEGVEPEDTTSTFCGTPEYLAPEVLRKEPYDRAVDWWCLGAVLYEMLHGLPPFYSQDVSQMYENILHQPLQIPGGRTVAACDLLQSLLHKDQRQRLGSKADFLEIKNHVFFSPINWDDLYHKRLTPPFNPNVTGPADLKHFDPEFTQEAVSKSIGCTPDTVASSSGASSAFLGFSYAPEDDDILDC

FGFR4 = FGFR4 (Homo sapiens, UniProt P22455); assay: Kinase enzyme activity assay (mobility shift assay, Carna); settings: for Percentage inhibition of kinase enzyme activity: FGFR4, 1 µmol/L of BTK inhibitor
BRK = BRK (Homo sapiens, UniProt Q13882); assay: Kinase panel profiling at 1 µmol/L (mobility shift assay, Carna); settings: for Percentage inhibition of kinase enzyme activity: BRK, 1 µmol/L of BTK inhibitor
BRK, sequence (Q13882 whole entry): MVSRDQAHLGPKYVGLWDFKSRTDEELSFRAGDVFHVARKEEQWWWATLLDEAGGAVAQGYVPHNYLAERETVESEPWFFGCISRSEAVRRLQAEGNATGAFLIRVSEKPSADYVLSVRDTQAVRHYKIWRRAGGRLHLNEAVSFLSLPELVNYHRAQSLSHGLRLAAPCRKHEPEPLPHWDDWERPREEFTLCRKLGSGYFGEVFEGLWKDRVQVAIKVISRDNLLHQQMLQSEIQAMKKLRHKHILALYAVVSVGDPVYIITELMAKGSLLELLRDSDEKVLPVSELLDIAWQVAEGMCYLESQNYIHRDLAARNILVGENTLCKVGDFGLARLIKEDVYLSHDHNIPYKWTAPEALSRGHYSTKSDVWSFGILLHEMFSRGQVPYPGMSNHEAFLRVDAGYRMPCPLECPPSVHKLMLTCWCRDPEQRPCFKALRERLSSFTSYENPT

Row | Structure (SMILES) | Percentage inhibition of kinase enzyme activity (ALK) | Percentage inhibition of kinase enzyme activity (AXL) | Percentage inhibition of kinase enzyme activity (EPHB1) | Percentage inhibition of kinase enzyme activity (FLT4) | Percentage inhibition of kinase enzyme activity (CLK2) | Percentage inhibition of kinase enzyme activity (Erk5) | Percentage inhibition of kinase enzyme activity (MNK1) | Percentage inhibition of kinase enzyme activity (NEK4) | Percentage inhibition of kinase enzyme activity (PAK4) | Percentage inhibition of kinase enzyme activity (PASK) | Percentage inhibition of kinase enzyme activity (SGK2) | Percentage inhibition of kinase enzyme activity (FGFR4) | Percentage inhibition of kinase enzyme activity (BRK) | pIC50 (FGFR4) | inhibition at 1 µM (BRK; read-out: Inhibition of BRK)
1 | CC#CC(=O)N1CCC[C@H]1c1nc(-c2ccc(C(=O)Nc3ccccn3)cc2)c2c(N)nccn12 [acalabrutinib] | 5.27% | -0.46% | -1.40% | 1.41% | -6.97% | -2.12% | 11.59% | -4.76% | -1.65% | -5.37% | -19.42% | -8.97% | 51.05% |  | 
2 | C=CC(=O)N1CCC[C@@H](n2nc(-c3ccc(Oc4ccccc4)cc3)c3c(N)ncnc32)C1 [ibrutinib] | 5.45% | 8.97% | 11.81% | 90.82% |  | 3.89% | 14.52% | 4.65% | 10.65% | -0.0437% |  | 36.91% | 102.78% |  | 
3 | O=C(c1ccc(Oc2ccccc2)cc1Cl)c1c[nH]c2ncnc(N[C@@H]3CC[C@@H](CO)OC3)c12 [nemtabrutinib] | 50.65% | 84.52% | 63.64% | 90.70% | 56.28% | 15.76% | 7.10% | 7.11% | 53.09% | 21.76% | 2.52% | 1.97% |  | 5.85 | 
4 | COc1ccc(F)cc1C(=O)NCc1ccc(-c2nn([C@@H](C)C(F)(F)F)c(N)c2C(N)=O)cc1 [pirtobrutinib] | 6.67% | -1.48% | 2.51% | 4.92% | 10.54% | 0.51% | 2.15% | -3.18% | 4.35% | 3.07% | -0.16% | 1.27% | 89.81% |  | > 75%
5 | C=CC(=O)N1CCC([C@@H]2CCNc3c(C(N)=O)c(-c4ccc(Oc5ccccc5)cc4)nn32)CC1 [zanubrutinib] |  |  | -1.07% | -6.85% |  |  |  | 0.95% |  |  |  | 0.81% | 98.97% |  | 
